# According to US10322132B2, “Prevention or treatment of uratic or gouty diseases” (SHANTON PHARMA CO., LTD., priority 2015, dated 2019):
# What was measured:
# IL-1β, IL-6, KC and TNFα = experiment: Air sacculitis (MSU-induced air sacs), cytokines in lavage fluid; details: for IL-1β / KC / TNF-α: lavage fluid supernatant, mean, n = 8
# Experimental: (§1) The sterile MSU crystals were added to 5 mL of sterilized saline before injected into air sacs.
# (§2) Male Wistar rats were raised for one week and then randomly divided into 6 groups. Animals were anesthetized and then injected with 24 mL of sterile air in their backs. The animals received the second injection of air 4 days later. On day 7, the rats in the blank group and model group were intragastrically administered with the solvent at a dose of 10 mL/kg; the rats in the dexamethasone group were administered by intraperitoneal injection with dexamethasone at a dose of 5 mg/kg; the rats in the colchicine group were intragastrically administered with colchicine at a dose of 5 mg/kg. […] One hour after administration, the rats in the blank group were injected with 5 mL of saline into the air sacs at the back, and the rats from other groups were injected with 5 mL of MSU crystal suspension (1 mg/mL) into the air sacs at the back. Four hours later, the lavage fluid in the air sacs was taken, and a portion of the lavage fluid was used for cytological analysis. The remaining was centrifuged at 8000 rpm for 15 min, and the supernatant was stored at −80° C. for the detection of cytokines IL-1β, IL-6, KC and TNFα. The test results were shown as mean±SEM and statistically analyzed by t-test.
# MSU-induced air sacs = experiment: Air sacculitis (MSU-induced air sacs), leukocyte counts in lavage fluid; details: for Leukocyte count: Basophil / Leukocyte count: Eosinocyte / Leukocyte count: Lymphocyte / Leukocyte count: Monocyte / Leukocyte count: Neutrophil / Total cell count: lavage fluid 4 h after MSU, mean ± SEM, n = 8;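 as to all read-outs here: male Wistar rats with dorsal air sacs, dosed 1 h before injecting MSU crystal suspension, compared with saline-injected blank and vehicle-treated model groups, cytological analysis of lavage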
# Experimental: as §1, §2
# serum uric acid = experiment: Uric acid-lowering test in monkeys having hyperuricemia (UA subcutaneous injection); assay type: in vivo, cynomolgus monkeys; set-up: Reduction rate or serum uric acid: concentration or dose not given beside the values; details: for Content of serum uric acid: Administration group
# Experimental: The experiment was conducted by reference to Komoriya K, Osada Y, Hasegawa M, Horiuchi H, Kondo S, Couch R C, Griffin T B. Hypouricemic effect of allopurinol and the novel xanthine oxidase inhibitor TEI-6720 in chimpanzees. Eur J Pharmacol. 1993 Dec. 21; 250(3): 455-60.
# In the Model group, three non-naïve cynomolgus monkeys (1 #, 2 # and 3 #) were administered with UA by subcutaneous injection at the nape. Blood was collected from the vein before UA administration and 0.5 h, 1 h, 2 h, 4 h, 6 h and 24 h after UA administration. The blood was left still at room temperature. The serum was collected by centrifugation. The content of serum uric acid was measured.
# In the Administration group, three non-naïve cynomolgus monkeys (1 #, 2 # and 3 #) were administered with the test sample by intravenous injection after 2 weeks of clearance. Blood was collected from the vein before administration and 2 h after administration of test sample. Then, the monkeys were administered with UA by subcutaneous injection at the nape and blood was collected from the vein 1 h, 2 h and 4 h after the UA administration. The blood was left still at room temperature. The serum was collected by centrifugation. The content of serum uric acid was measured. Reduction rate of serum uric acid in healthy monkeys administered with test sample=(average uric acid content before administration−average uric acid content 2 h after administration of test sample)/average uric acid content before administration*100%, Reduction rate of serum uric acid in monkeys having hyperuricemia after administration of test sample=(uric acid content after UA administration in the model group−uric acid content after UA administration in the administration group)/uric acid content in the model group*(100%).
# That was, the samples were collected before administration, 2 h after administration of test sample and 1 h, 2 h and 4 h after UA administration for determination of the serum uric acid content. The contents of serum uric acid in the model group and the administration group and the reduction rates of serum uric acid were shown in the following Tables 3-1, 3-2 and 3-3, respectively.
# IFNγ = experiment: ConA-induced IFNγ release; assay type: in vivo, Male C57BL/6 mice; details: for inhibition (%): IFN-γ in serum vs model group, 20 mg/kg subcutaneous; for effect on content of IFNγ in the serum of the test mice (in words): compared with the model group; for Content of IFN-γ: serum, 20 mg/kg subcutaneous 30 min before ConA 15 mg/kg tail vein, 3 h after ConA
# Experimental: The experiment was conducted by reference to Dalya R. Soondl, Elisa Bjørgo, etc. PI3K p110δ regulates T cell cytokine production during primary and secondary immune responses in mice and humans. Blood. Author manuscript; available in PMC 2013 Mar. 11; and Gabriele Sass, Sonja Heinlein, etc. CYTOKINE EXPRESSION IN THREE MOUSE MODELS OF EXPERIMENTAL HEPATITIS. CYTOKINE, Vol. 19, No. 3 (7 Aug.), 2002: pp 115-120.
# The C57BL/6 mice were raised in the SPF-grade animal room for 1 week, and were then randomly divided into the corresponding model group and the administration groups according to the body weight. The […] were administered with ConA by the tail vein injection at a dose of 15 mg/kg 30 min after the administration of the solvent or the test samples by subcutaneous injection at a dose of 20 mg/kg. After the mice were anesthetized with sodium pentobarbital (45 mg/kg by intraperitoneal injection) 3 h after administration of ConA, the blood was collected by cardiac puncture. The blood was placed in the centrifuge tube without anticoagulant and left still at room temperature. One hour later, the blood was centrifuged. The serum was extracted and stored at −80° C. The content of IFNγ (γ-interferon) in the serum was detected by a Mouse IFNγ Elisa
# TNF-α = experiment: LPS-induced TNF-α release; assay type: in vivo, Male BALB/C mice
# Experimental: The experiment was conducted by reference to Pascale Gaillard, Isabelle Jeanclaude-Etter, etc. Design and Synthesis of the First Generation of Novel Potent, Selective, and in Vivo Active (Benzothiazol-2-yl)acetonitrile
# BALB/C mice were raised in the SPF-grade animal room for 1 week, and were then randomly divided into the corresponding model group and the administration groups according to the body weight. The […] were administered with the solvent or the test samples by subcutaneous injection at a dose of 10 mg/kg. The rats were administered with LPS by intraperitoneal injection at a dose of 15 mg/kg 30 min after the administration of the solvent or the test samples. The mice were anesthetized with sodium pentobarbital (45 mg/kg by intraperitoneal injection) 1 h after LPS administration. The blood was collected by cardiac puncture, and the content of TNF-α (tumor necrosis factor) in plasma was measured with a Mouse TNF-α Elisa Ready-set-go kit.
smiles,measurement,setting,value
"CCCCCn1c(=O)[nH]c(=O)c2[nH]c(Cl)nc21 [Compound A, 8-chloro-3-pentyl-3,7-dihydro-1H-purine-2,6-dione]",IL-1β,"IL-1β, IL-6, KC and TNFα; 30 mg/kg intragastric",79.2 pg/mL
same,KC,"IL-1β, IL-6, KC and TNFα; 30 mg/kg intragastric",8742.1 pg/mL
same,TNF-α,"IL-1β, IL-6, KC and TNFα; 30 mg/kg intragastric",29.7 pg/mL
same,IL-1β,"IL-1β, IL-6, KC and TNFα; 100 mg/kg intragastric",88.6 pg/mL
same,KC,"IL-1β, IL-6, KC and TNFα; 100 mg/kg intragastric",5757.4 pg/mL
same,TNF-α,"IL-1β, IL-6, KC and TNFα; 100 mg/kg intragastric",18.7 pg/mL
same,"effect on increase of IL-6, KC and TNFα (in words)","IL-1β, IL-6, KC and TNFα; oral dose of 100 mg/kg",significantly inhibit
same,Leukocyte count: Basophil,MSU-induced air sacs; 30 mg/kg intragastric,0 ± 0 *10^4/air sacs
same,Leukocyte count: Eosinocyte,MSU-induced air sacs; 30 mg/kg intragastric,5.8 ± 1.2 *10^4/air sacs
same,Leukocyte count: Lymphocyte,MSU-induced air sacs; 30 mg/kg intragastric,8.1 ± 1.2 *10^4/air sacs
same,Leukocyte count: Monocyte,MSU-induced air sacs; 30 mg/kg intragastric,174.2 ± 35.4 *10^4/air sacs
same,Leukocyte count: Neutrophil,MSU-induced air sacs; 30 mg/kg intragastric,18.6 ± 6.4^$ *10^4/air sacs
same,Total cell count,MSU-induced air sacs; 30 mg/kg intragastric,206.8 ± 42.9^$ *10^4/air sacs
same,Leukocyte count: Basophil,MSU-induced air sacs; 100 mg/kg intragastric,0 ± 0 *10^4/air sacs
same,Leukocyte count: Eosinocyte,MSU-induced air sacs; 100 mg/kg intragastric,4.6 ± 1.4 *10^4/air sacs
same,Leukocyte count: Lymphocyte,MSU-induced air sacs; 100 mg/kg intragastric,8.0 ± 1.9 *10^4/air sacs
same,Leukocyte count: Monocyte,MSU-induced air sacs; 100 mg/kg intragastric,151.4 ± 24.1 *10^4/air sacs
same,Leukocyte count: Neutrophil,MSU-induced air sacs; 100 mg/kg intragastric,12.2 ± 3.4^$ *10^4/air sacs
same,Total cell count,MSU-induced air sacs; 100 mg/kg intragastric,176.2 ± 29.6^$$$ *10^4/air sacs
same,effect on increase of the total cell count and neutrophil count in the lavage fluid caused by MSU (in words),MSU-induced air sacs; compound A at the oral doses of 30 mg/kg and 100 mg/kg,significantly inhibit
same,Reduction rate or serum uric acid,"serum uric acid; 1 h after UA administration vs model group, animal 1#",35.5%
same,Reduction rate or serum uric acid,"serum uric acid; 1 h after UA administration vs model group, animal 2#",26.2%
same,Reduction rate or serum uric acid,"serum uric acid; 1 h after UA administration vs model group, animal 3#",56.0%
same,Reduction rate or serum uric acid,"serum uric acid; 1 h after UA administration vs model group, mean",39.2%
same,Reduction rate or serum uric acid,"serum uric acid; 2 h after UA administration vs model group, animal 1#",67.1%
same,Reduction rate or serum uric acid,"serum uric acid; 2 h after UA administration vs model group, animal 2#",37.2%
same,Reduction rate or serum uric acid,"serum uric acid; 2 h after UA administration vs model group, animal 3#",45.5%
same,Reduction rate or serum uric acid,"serum uric acid; 2 h after UA administration vs model group, mean",49.1%
same,Reduction rate or serum uric acid,"serum uric acid; 2 h after administration of test sample vs before administration (healthy monkeys), animal 1#",46.4%
same,Reduction rate or serum uric acid,"serum uric acid; 2 h after administration of test sample vs before administration (healthy monkeys), animal 2#",30.2%
same,Reduction rate or serum uric acid,"serum uric acid; 2 h after administration of test sample vs before administration (healthy monkeys), animal 3#",1.56%
same,Reduction rate or serum uric acid,"serum uric acid; 2 h after administration of test sample vs before administration (healthy monkeys), mean",26.1%
same,Reduction rate or serum uric acid,"serum uric acid; 4 h after UA administration vs model group, animal 1#",64.3%
same,Reduction rate or serum uric acid,"serum uric acid; 4 h after UA administration vs model group, animal 2#",77.1%
same,Reduction rate or serum uric acid,"serum uric acid; 4 h after UA administration vs model group, animal 3#",32.6%
same,Reduction rate or serum uric acid,"serum uric acid; 4 h after UA administration vs model group, mean",58.0%
same,Content of serum uric acid,"serum uric acid; 1 h after UA administration, animal 1#",75.3 µmol/L
same,Content of serum uric acid,"serum uric acid; 1 h after UA administration, animal 2#",97.5 µmol/L
same,Content of serum uric acid,"serum uric acid; 1 h after UA administration, animal 3#",53.1 µmol/L
same,Content of serum uric acid,"serum uric acid; 1 h after UA administration, mean",75.3 µmol/L
same,Content of serum uric acid,"serum uric acid; 2 h after UA administration, animal 1#",26.6 µmol/L
same,Content of serum uric acid,"serum uric acid; 2 h after UA administration, animal 2#",58.0 µmol/L
same,Content of serum uric acid,"serum uric acid; 2 h after UA administration, animal 3#",37.0 µmol/L
same,Content of serum uric acid,"serum uric acid; 2 h after UA administration, mean",40.5 µmol/L
same,Content of serum uric acid,"serum uric acid; 4 h after UA administration, animal 1#",28.4 µmol/L
same,Content of serum uric acid,"serum uric acid; 4 h after UA administration, animal 2#",12.3 µmol/L
same,Content of serum uric acid,"serum uric acid; 4 h after UA administration, animal 3#",43.2 µmol/L
same,Content of serum uric acid,"serum uric acid; 4 h after UA administration, mean",28.0 µmol/L
same,Content of serum uric acid,"serum uric acid; intravenous, 2 h after administration of test sample (before UA), animal 1#",12.3 µmol/L
same,Content of serum uric acid,"serum uric acid; intravenous, 2 h after administration of test sample (before UA), animal 2#",37.0 µmol/L
same,Content of serum uric acid,"serum uric acid; intravenous, 2 h after administration of test sample (before UA), animal 3#",34.6 µmol/L
same,Content of serum uric acid,"serum uric acid; intravenous, 2 h after administration of test sample (before UA), mean",28.0 µmol/L
same,effect on content of serum uric acid in the test monkeys (in words),serum uric acid; compared to the model group (self-comparation),significantly reduce
same,inhibition (%),IFNγ,38.3%
same,effect on content of IFNγ in the serum of the test mice (in words),IFNγ,significantly reduce
same,Content of IFN-γ,IFNγ,2025 pg/mL
"CCCCCn1c(=O)n(C)c(=O)c2[nH]c(Cl)nc21 [Compound D, 8-chloro-1-methyl-3-pentyl-3,7-dihydro-1H-purine-2,6-dione]",inhibition (%),"TNF-α; TNF-α in plasma vs model group, 10 mg/kg subcutaneous",29.6%
same,effect on content of TNF-α in the plasma of the test mice (in words),TNF-α; compared with the model group,significantly reduce
same,Content of TNF-α,"TNF-α; plasma, 10 mg/kg subcutaneous 30 min before LPS 15 mg/kg i.p., 1 h after LPS",1124 pg/mL
same,inhibition (%),IFNγ,35.8%
same,effect on content of IFNγ in the serum of the test mice (in words),IFNγ,significantly reduce
same,Content of IFN-γ,IFNγ,2108 pg/mL
